Source: patent US12180307B2, “Interleukin-13 binding cyclic oligopeptides and methods of use thereof” (B.A.I. LABORATORIES, LLC, priority 2022, dated 2024)
Values joined by “and” are separate entries in the source; they are usually repeats but may differ in a detail not shown here. Identical values can stand only once. Square brackets hold non-standard residues; d marks the D form. Peptide text beside a SMILES is read from it.

Columns and labels:
FIG. 2D = experiment: FIG. 2D
Excerpt: Table printed on a drawing sheet, FIG. 2D
The patent's description of the figure: FIG. 2A provides the mass spectrometry (MS) spectrum for Compound 1. FIG. 2B provides the high-performance liquid chromatography (HPLC) chromatogram for Compound 1. FIG. 2C provides surface plasmon resonance (SPR) assay curves showing the binding affinity of Compound 1 for IL-13, the x-axis represents time of reaction and y-axis represents altitude of response (Response Units). FIG. 2D illustrates skin permeation rate of Compound 1 for up to 24 hours. FIG. 2E illustrates average permeability coefficient (Kp) of Compound 1 for 1, 2, 4, 8, 12 and 24 hours.
First reader's note: Substance name is taken from the legend of the plot printed above the table; the values are skin permeation in three replicates, their average and their range.

[1] = Skin permeability, Franz Cell diffusion cell with artificial skin, Transdermal Diffusion Tester, BCA assay; assay type: in vitro ADME; settings: for Average Permeation Rate After 1 Hour (%) / Average Permeation Rate After 24 Hours (%): 32° C., 1.0 mg/mL in PBS; for Average Permeation Rate After 1 Hour (%) / Papp at 1 h, 1 mg/mL: after 1 hour; for Papp at 1 h, 1 mg/mL: read-out: Average Permeability Coefficient (Kp) After 1 hour (converted); for Average Permeation Rate After 24 Hours (%) / Papp at 24 h, 1 mg/mL: after 24 hours; for Papp at 24 h, 1 mg/mL: read-out: Average Permeability Coefficient (Kp) After 24 hours
Experimental: As used herein, the term “skin permeation rate” of a cyclic oligopeptide is measured using artificial skin (Start M, Merck), and refers to the percentage of the cyclic oligopeptide that penetrate the artificial skin after certain amount of time. For example, if 60% of the total amount of a cyclic oligopeptide of this disclosure has penetrated the artificial skin after 24 hours, then the skin permeation rate of the cyclic oligopeptide is 60% after 24 hours.
As used herein, the term “skin permeability coefficient (Kp)” refers to the rate at which the cyclic oligopeptide penetrates the skin, as measured using artificial skin (Start M, Merck). In some embodiments, permeability coefficient (Kp)(cm/hr) is calculated with the following equation:
[formula] wherein Q(mg) refers to the total amount of cyclic oligopeptide that pass through the artificial skin within a certain amount of time; A(cm^2) refers to the internal cross-section area of the artificial skin in a diffusion cell; T(hr) refers to the total amount of time of cyclic oligopeptide permeation; and ΔC(mg/mL) refers to the concentration difference of the cyclic oligopeptide between the two sides of the artificial skin. In some embodiments, the diffusion cell is a Franz Cell.
Skin permeability of the cyclic oligopeptides generated in Example 1 was measured using Transdermal Diffusion Tester (TK-12D, Shanghai Kai Kai Industrial Co Ltd) and artificial skin (Start M, Merck). Three parallel experimental groups were set up for each sample. The skin permeability of cyclic oligopeptides was evaluated by the following steps: • 1) 2.0 mg cyclic oligopeptide was weighed and dissolved in 100 μL DMSO. Three parallel experimental groups were set up for each cyclic oligopeptide. The cyclic oligopeptide-containing solution was then slowly added dropwise to 1900 μL 1×PBS solution and mixed evenly to prepare a PBS solution with a final concentration of 1.0 mg/mL cyclic polypeptide. • 2) A magnetron was inserted into a Franz Cell diffusion cell, and an artificial skin was sandwiched in the middle of the diffusion cell with the smooth side of the artificial skin facing up. The diffusion cell was then fixed with clamps after assembly. • 3) 7.75 ml 1×PBS solution were then added to the diffusion cell without generating bubbles in the diffusion cell. The sampling port of the diffusion cell was then sealed with parafilm to reduce evaporation. • 4) The temperature of a Transdermal Diffusion Tester was then set to 32° C., and the magneton speed was set to 180 r/min. • 5) The assembled diffusion cell was then put into the Transdermal Diffusion Tester and preheated for 5-10 mins. • 6) 400 μL of 1.0 mg/mL cyclic oligopeptide solution prepared in step 1) was then added to the upper chamber of the diffusion cell, making it evenly dispersed on the surface of the artificial skin without air bubbles. The top port of the diffusion cell was then covered with parafilm to reduce evaporation. • 7) Starting from the time of adding the cyclic oligopeptide solution, samples of about 0.5 mL of the receiving solution were taken at six time points, 1 h, 2 h, 4 h, 8 h, 12 h and 24 h, using a plastic dropper to take out the samples from the sampling port of the diffusion cell. 0.5 mL of 1×PBS solution was added into the diffusion cell to restore the initial volume of the receiving solution. When sampling, the diffusion cell was tilted appropriately to avoid the generation of bubbles. The samples were then numbered and store at −20° C. • 8) A BCA Assay (Micro BCA Protein Assay Kit, Thermo Scientific) was conducted to measure the concentration of cyclic oligopeptide in samples obtained in step 7) (Actual Concentration of the cyclic oligopeptide at the particular time point). Three parallel groups were used. The weight of cyclic oligopeptide in each sample obtained in step 7) equals to Actual Concentration×0.5 mL. • 9) Permeation rate of each cyclic oligopeptide at each time point was calculated according to the following equation: […]

Human IL-13 = Human IL-13 (Homo sapiens, UniProt P35225); experiment: Surface plasmon resonance (SPR) binding assay, BIAcore 8K plus, immobilized Fc-tagged IL-13; settings: 25° C., human IL-13 with Fc-tag immobilized on CM5 chip, read-out: Binding Affinity (KD) for IL-13
Experimental: A SPR assay was conducted to determine the binding affinity of the cyclic oligopeptides generated in Example 1 for IL-13 using a BIAcore 8K plus instrument (GE Healthcare). Human IL-13 with an Fc-tag was immobilized onto the surfaces of Series S Sensor CM5 (GE Healthcare) chips in the range of 5000 resonance units (RU). The binding kinetics were performed at 25° C. with a flow rate of 30 μL/min. The cyclic oligopeptides were analyzed in running buffer comprising 20 mM PBS, 2.7 mM KCl, […], 0.0500 Surfactant P20, pH 7.4, 1% DMSO, starting at 100 μM with gradient of ten two-fold dilutions using solvent correction mode.
FIGS. 2C, 3C, 4C, 5C, 6C, 7C, 8C, 9C, 10C, 11C, and 12C provide SPR response curves for the cyclic oligopeptides generated in Example 1, wherein the x-axis represents time of reaction and y-axis represents altitude of response (Response Units).

FIG. 3D = experiment: FIG. 3D
Experimental: Table printed on a drawing sheet, FIG. 3D
The patent's description of the figure: FIG. 3A provides the MS spectrum for Compound 2. FIG. 3B provides the HPLC chromatogram for Compound 2. FIG. 3C provides SPR assay curves showing the binding affinity of Compound 2 for IL-13, the x-axis represents time of reaction and y-axis represents altitude of response (Response Units). FIG. 3D illustrates skin permeation rate of Compound 2 for up to 24 hours. FIG. 3E illustrates average permeability coefficient (Kp) of Compound 2 for 1, 2, 4, 8, 12 and 24 hours.
First reader's note: The substance name is taken from the legend of the plot printed above the table; the values are three replicate permeation rates, their average and their range.

FIG.4D = experiment: FIG.4D
Experimental: Table printed on a drawing sheet, FIG.4D
The patent's description of the figure: FIG. 4A provides the MS spectrum for Compound 3. FIG. 4B provides the HPLC chromatogram for Compound 3. FIG. 4C provides SPR assay curves showing the binding affinity of Compound 3 for IL-13, the x-axis represents time of reaction and y-axis represents altitude of response (Response Units). FIG. 4D illustrates skin permeation rate of Compound 3 for up to 24 hours. FIG. 4E illustrates average permeability coefficient (Kp) of Compound 3 for 1, 2, 4, 8, 12 and 24 hours.
First reader's note: The substance name is printed only in the legend of the plot above the table; columns 2 to 4 are three replicate permeation measurements.

FIG. 5D = experiment: FIG. 5D
Experimental: Table printed on a drawing sheet, FIG. 5D
The patent's description of the figure: FIG. 5A provides the MS spectrum for Compound 4. FIG. 5B provides the HPLC chromatogram for Compound 4. FIG. 5C provides SPR assay curves showing the binding affinity of Compound 4 for IL-13, the x-axis represents time of reaction and y-axis represents altitude of response (Response Units). FIG. 5D illustrates skin permeation rate of Compound 4 for up to 24 hours. FIG. 5E illustrates average permeability coefficient (Kp) of Compound 4 for 1, 2, 4, 8, 12 and 24 hours.
First reader's note: The substance name is taken from the legend of the plot above the table on the same sheet; the values are skin permeation rates over time.

FIG. 6D = experiment: FIG. 6D
Experimental: Table printed on a drawing sheet, FIG. 6D
The patent's description of the figure: FIG. 6A provides the MS spectrum of Compound 5. FIG. 6B provides the HPLC chromatogram for Compound 5. FIG. 6C provides SPR assay curves showing the binding affinity of Compound 5 for IL-13, the x-axis represents time of reaction and y-axis represents altitude of response (Response Units). FIG. 6D illustrates skin permeation rate of Compound 5 for up to 24 hours. FIG. 6E illustrates average permeability coefficient (Kp) of Compound 5 for 1, 2, 4, 8, 12 and 24 hours.
First reader's note: The substance name Compound 5 comes from the legend of the plot printed above the table; the values are three replicate permeation measurements with their average and range.

FIG. 7D = experiment: FIG. 7D
Experimental: Table printed on a drawing sheet, FIG. 7D
The patent's description of the figure: FIG. 7A provides the MS spectrum for Compound 6. FIG. 7B provides the HPLC chromatogram for Compound 6. FIG. 7C provides SPR assay curves showing the binding affinity of Compound 6 for IL-13, the x-axis represents time of reaction and y-axis represents altitude of response (Response Units). FIG. 7D illustrates skin permeation rate of Compound 6 for up to 24 hours. FIG. 7E illustrates average permeability coefficient (Kp) of Compound 6 for 1, 2, 4, 8, 12 and 24 hours.
First reader's note: The substance name Compound 6 is taken from the legend of the plot printed above the table on the same sheet.

Chain of Human IL-13 (P35225 25-146): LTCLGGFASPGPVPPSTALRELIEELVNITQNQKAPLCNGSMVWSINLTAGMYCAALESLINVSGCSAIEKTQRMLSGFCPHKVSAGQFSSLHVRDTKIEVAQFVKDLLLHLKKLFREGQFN

SMILES | Permeation Avg. (%) (FIG. 2D) | Average Permeation Rate After 1 Hour (%) [1] [%] | Average Permeation Rate After 24 Hours (%) [1] [%] | Papp at 1 h, 1 mg/mL [1] [×10⁻⁶ cm/s] | Papp at 24 h, 1 mg/mL [1] [×10⁻⁶ cm/s] | Kd (Human IL-13) [µM] | Permeation Avg. (%) (FIG. 3D) | Permeation Avg. (%) (FIG.4D) | Permeation Avg. (%) (FIG. 5D) | Permeation Avg. (%) (FIG. 6D) | Permeation Avg. (%) (FIG. 7D)
CC(C)[C@H]1NC(=O)[C@@H](Cc2ccccc2)NC(=O)[C@@H](CCCNC(=N)N)NC(=O)[C@@H]2CCCN2C(=O)[C@H](CCC(=O)O)NC(=O)[C@H](Cc2ccc(O)cc2)NC1=O [Compound 1, D-Arg D-Phe D- Val Tyr Glu Pro] (cyclo(EP[dR][dF][dV]Y)) | 23.80% and 30.38% and 34.53% and 39.28% | 18.54 | 42.06 | 11.1 | > 0.0278 | 16 |  |  |  |  | 
CC(C)[C@H]1NC(=O)[C@H]([C@@H](C)O)NC(=O)[C@H](CCCNC(=N)N)NC(=O)[C@H]2CCCN2C(=O)[C@@H](Cc2ccccc2)NC(=O)[C@H](CCC(=O)O)NC1=O [Compound 2, Arg Thr D-Val Glu D-Phe D-Pro] (cyclo(E[dF][dP]RT[dV])) |  | 14.62 | 30.51 | 8.69 |  | 17.4 | 18.57% and 23.21% and 25.36% and 28.50% |  |  |  | 
CC(C)[C@H]1NC(=O)[C@@H]([C@H](C)O)NC(=O)[C@H](CCC(=O)O)NC(=O)[C@H]2CCCN2C(=O)[C@H]2CCCN2C(=O)[C@H](Cc2c[nH]c3ccccc23)NC1=O [Compound 3, Glu D-Thr D-Val Trp D-Pro D-Pro] (cyclo(E[dT][dV]W[dP][dP])) |  | 19.61 | 36.59 | 11.7 |  | 22.8 |  | 24.16% and 28.65% and 31.31% and 34.61% |  |  | 
CC(C)[C@H]1NC(=O)[C@H](CCC(=O)O)NC(=O)[C@H](CCCNC(=N)N)NC(=O)[C@H]2CCCN2C(=O)[C@H]2CCCN2C(=O)[C@H](Cc2c[nH]c3ccccc23)NC1=O [Compound 4, Arg Glu D-Val Trp D-Pro D-Pro] (cyclo(E[dV]W[dP][dP]R)) |  | 17.28 | 35.59 | 10.3 | > 0.0278 | 26.2 |  |  | 21.81% and 27.10% and 30.14% and 33.22% |  | 
CC(C)[C@@H]1NC(=O)[C@H](Cc2c[nH]c3ccccc23)NC(=O)[C@H]2CCCN2C(=O)[C@H]2CCCN2C(=O)[C@H](CCC(=O)O)NC(=O)[C@H](CCCNC(=N)N)NC1=O [Compound 5, Trp Val Arg Glu D-Pro D-Pro] (cyclo(E[dP][dP]WVR)) |  |  | 48.73 | 13.4 |  | 47.1 |  |  |  | 29.54% and 37.22% and 40.94% and 45.90% | 
CC(C)[C@H]1NC(=O)[C@@H]([C@H](C)O)NC(=O)[C@H](CCC(=O)O)NC(=O)[C@H](CCCNC(=N)N)NC(=O)[C@H](Cc2ccc(O)cc2)NC(=O)[C@H]2CCCN2C1=O [Compound 6, Tyr Arg Glu D-Thr D-Val D-Pro] (cyclo(E[dT][dV][dP]YR)) |  | 15.34 | 33.86 | 9.14 |  | 55.4 |  |  |  |  | 22.01% and 26.17% and 29.25% and 31.77%
